Reference: PubChem BioAssay (NCI)
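Following 48 hours of exposure in 96-well plates, responses at five concentrations were used to interpolate endpoints linearly. TGI denotes the concentration required for complete inhibition of growth.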

What was measured:
Assay in all cases: NCI tumour cell line growth inhibition, 48 h
786-0 renal = tested on: 786-0 renal
A498 renal = tested on: A498 renal
A549 NSCLC = tested on: A549 NSCLC
ACHN renal = tested on: ACHN renal
BT-549 breast = tested on: BT-549 breast
CAKI-1 renal = tested on: CAKI-1 renal
COLO 205 colon = tested on: COLO 205 colon
DU-145 prostate = tested on: DU-145 prostate
EKVX NSCLC = tested on: EKVX NSCLC
HCC-2998 colon = tested on: HCC-2998 colon
HCT-116 colon = tested on: HCT-116 colon
HCT-15 colon = tested on: HCT-15 colon
HOP-62 NSCLC = tested on: HOP-62 NSCLC
HOP-92 NSCLC = tested on: HOP-92 NSCLC
HS 578T breast = tested on: HS 578T breast
HT29 colon = tested on: HT29 colon
IGROV1 ovarian = tested on: IGROV1 ovarian
K-562 leukemia = tested on: K-562 leukemia
KM12 colon = tested on: KM12 colon
LOX IMVI melanoma = tested on: LOX IMVI melanoma
M14 melanoma = tested on: M14 melanoma
MALME-3M melanoma = tested on: MALME-3M melanoma
MCF7 breast = tested on: MCF7 breast
MDA-MB-231 breast = tested on: MDA-MB-231 breast
MDA-MB-435 = tested on: MDA-MB-435
MDA-N = tested on: MDA-N
MOLT-4 leukemia = tested on: MOLT-4 leukemia
NCI-H226 lung = tested on: NCI-H226 lung
NCI-H23 lung = tested on: NCI-H23 lung
NCI-H460 lung = tested on: NCI-H460 lung
NCI-H522 lung = tested on: NCI-H522 lung
NCI/ADR-RES ovarian = tested on: NCI/ADR-RES ovarian
OVCAR-3 ovarian = tested on: OVCAR-3 ovarian
OVCAR-4 ovarian = tested on: OVCAR-4 ovarian
OVCAR-5 ovarian = tested on: OVCAR-5 ovarian
OVCAR-8 ovarian = tested on: OVCAR-8 ovarian
PC-3 prostate = tested on: PC-3 prostate
RPMI-8226 leukemia = tested on: RPMI-8226 leukemia
RXF 393 renal = tested on: RXF 393 renal
SF-268 CNS = tested on: SF-268 CNS
SF-295 CNS = tested on: SF-295 CNS
SF-539 CNS = tested on: SF-539 CNS
SK-MEL-2 melanoma = tested on: SK-MEL-2 melanoma
SK-MEL-28 melanoma = tested on: SK-MEL-28 melanoma
SK-MEL-5 melanoma = tested on: SK-MEL-5 melanoma
SK-OV-3 ovarian = tested on: SK-OV-3 ovarian
SN12C renal = tested on: SN12C renal
SNB-19 CNS = tested on: SNB-19 CNS
SNB-75 CNS = tested on: SNB-75 CNS
T-47D breast = tested on: T-47D breast
TK-10 renal = tested on: TK-10 renal
U251 CNS = tested on: U251 CNS
UACC-257 melanoma = tested on: UACC-257 melanoma
UACC-62 melanoma = tested on: UACC-62 melanoma
UO-31 renal = tested on: UO-31 renal
CCRF-CEM leukemia = tested on: CCRF-CEM leukemia
HL-60(TB) leukemia = tested on: HL-60(TB) leukemia
SW-620 colon = tested on: SW-620 colon

`Oc1ccc(C=NCC2CCCN3CCCCC23)cc1` (stereo unspecified) showed a TGI (786-0 renal) of 36.7 µM, a TGI (A498 renal) of 83.9 µM and a TGI (A549 NSCLC) of over 62.8 µM. For the same compound, the TGI (ACHN renal) was 34.9 µM, the TGI (BT-549 breast) was 61.5 µM and the TGI (CAKI-1 renal) was 39.5 µM. For the same compound, the TGI (COLO 205 colon) was over 66.7 µM, the TGI (DU-145 prostate) was 31.3 µM and the TGI (EKVX NSCLC) was over 75.4 µM. The TGI (HCC-2998 colon) was 40.4 µM, the TGI (HCT-116 colon) was 49.5 µM and the TGI (HCT-15 colon) was 63 µM. It also gave a TGI (HOP-62 NSCLC) of over 75.1 µM, a TGI (HOP-92 NSCLC) of 67.3 µM and a TGI (HS 578T breast) of 85.5 µM. For the same compound, the TGI (HT29 colon) was 30.7 µM, the TGI (IGROV1 ovarian) was over 67.8 µM and the TGI (K-562 leukemia) was over 100 µM. It also gave a TGI (KM12 colon) of 35.3 µM, a TGI (LOX IMVI melanoma) of over 100 µM and a TGI (M14 melanoma) of over 57.6 µM. For the same compound, the TGI (MALME-3M melanoma) was 74.1 µM, the TGI (MCF7 breast) was over 100 µM and the TGI (MDA-MB-231 breast) was 74.8 µM. For the same compound, the TGI (MDA-MB-435) was 27 µM, the TGI (MDA-N) was 39.4 µM and the TGI (MOLT-4 leukemia) was over 100 µM. The TGI (NCI-H226 lung) was 58.4 µM, the TGI (NCI-H23 lung) was over 62 µM and the TGI (NCI-H460 lung) was 73.4 µM. For the same compound, the TGI (NCI-H522 lung) was 47.3 µM, the TGI (NCI/ADR-RES ovarian) was over 100 µM and the TGI (OVCAR-3 ovarian) was over 69.3 µM. It also gave a TGI (OVCAR-4 ovarian) of 42.3 µM, a TGI (OVCAR-5 ovarian) of over 59.5 µM and a TGI (OVCAR-8 ovarian) of over 100 µM. The TGI (PC-3 prostate) was over 100 µM, the TGI (RPMI-8226 leukemia) was 86 µM and the TGI (RXF 393 renal) was 43.9 µM. For the same compound, the TGI (SF-268 CNS) was over 68.5 µM, the TGI (SF-295 CNS) was over 76.9 µM and the TGI (SF-539 CNS) was over 100 µM. The TGI (SK-MEL-2 melanoma) was 49.4 µM, the TGI (SK-MEL-28 melanoma) was 38.6 µM and the TGI (SK-MEL-5 melanoma) was 51.4 µM. The TGI (SK-OV-3 ovarian) was 97.4 µM, the TGI (SN12C renal) was 41.9 µM and the TGI (SNB-19 CNS) was 63.3 µM. The TGI (SNB-75 CNS) was over 96.5 µM, the TGI (T-47D breast) was 71.3 µM and the TGI (TK-10 renal) was 55.5 µM. The TGI (U251 CNS) was 34.8 µM, the TGI (UACC-257 melanoma) was 62.3 µM and the TGI (UACC-62 melanoma) was over 69.5 µM. For the same compound, the TGI (UO-31 renal) was over 56.7 µM.
`CC1(C)Cc2c(c3ccccc3c3nc4c(nc23)c2c(c3ccccc34)OC(C)(C)C2)O1` was tested, and the TGI (786-0 renal) was over 100 µM, the TGI (A498 renal) was over 100 µM and the TGI (A549 NSCLC) was over 100 µM. For the same compound, the TGI (ACHN renal) was over 100 µM, the TGI (BT-549 breast) was over 100 µM and the TGI (CAKI-1 renal) was over 100 µM. For the same compound, the TGI (CCRF-CEM leukemia) was over 100 µM, the TGI (COLO 205 colon) was over 100 µM and the TGI (DU-145 prostate) was over 100 µM. The TGI (EKVX NSCLC) was over 100 µM, the TGI (HCC-2998 colon) was over 100 µM and the TGI (HCT-116 colon) was over 100 µM. For the same compound, the TGI (HCT-15 colon) was over 100 µM, the TGI (HL-60(TB) leukemia) was over 100 µM and the TGI (HOP-62 NSCLC) was over 100 µM. For the same compound, the TGI (HOP-92 NSCLC) was over 100 µM, the TGI (HS 578T breast) was over 100 µM and the TGI (HT29 colon) was over 100 µM. It also gave a TGI (IGROV1 ovarian) of over 100 µM, a TGI (KM12 colon) of over 100 µM and a TGI (LOX IMVI melanoma) of over 100 µM. It also gave a TGI (M14 melanoma) of over 100 µM, a TGI (MALME-3M melanoma) of over 100 µM and a TGI (MCF7 breast) of over 100 µM. It also gave a TGI (MDA-MB-231 breast) of over 100 µM, a TGI (MDA-MB-435) of over 100 µM and a TGI (MDA-N) of over 100 µM. It also gave a TGI (MOLT-4 leukemia) of over 100 µM, a TGI (NCI-H23 lung) of over 100 µM and a TGI (NCI-H460 lung) of over 100 µM. For the same compound, the TGI (NCI-H522 lung) was over 100 µM, the TGI (NCI/ADR-RES ovarian) was over 100 µM and the TGI (OVCAR-3 ovarian) was over 100 µM. It also gave a TGI (OVCAR-4 ovarian) of over 100 µM, a TGI (OVCAR-5 ovarian) of over 100 µM and a TGI (OVCAR-8 ovarian) of over 100 µM. For the same compound, the TGI (PC-3 prostate) was over 100 µM, the TGI (RPMI-8226 leukemia) was over 100 µM and the TGI (RXF 393 renal) was over 100 µM. It also gave a TGI (SF-268 CNS) of over 100 µM, a TGI (SF-295 CNS) of over 100 µM and a TGI (SF-539 CNS) of over 100 µM. The TGI (SK-MEL-2 melanoma) was over 100 µM, the TGI (SK-MEL-28 melanoma) was over 100 µM and the TGI (SK-MEL-5 melanoma) was over 100 µM. It also gave a TGI (SK-OV-3 ovarian) of over 100 µM, a TGI (SN12C renal) of over 100 µM and a TGI (SNB-19 CNS) of over 100 µM. It also gave a TGI (SW-620 colon) of over 100 µM, a TGI (T-47D breast) of over 100 µM and a TGI (TK-10 renal) of over 100 µM. It also gave a TGI (U251 CNS) of over 100 µM, a TGI (UACC-257 melanoma) of over 100 µM and a TGI (UACC-62 melanoma) of over 100 µM.
With `CCOC(=O)C1=C(C)NC(C)=C(C(=O)OCC)C1c1ccc(Cl)cc1` the TGI (786-0 renal) was 26.5 µM, the TGI (A498 renal) was 31.2 µM and the TGI (A549 NSCLC) was 34.3 µM. The TGI (ACHN renal) was 30.8 µM, the TGI (BT-549 breast) was 32.7 µM and the TGI (CAKI-1 renal) was 30.7 µM. It also gave a TGI (CCRF-CEM leukemia) of 28.3 µM, a TGI (COLO 205 colon) of 32.4 µM and a TGI (DU-145 prostate) of 31.9 µM. For the same compound, the TGI (EKVX NSCLC) was 31.3 µM, the TGI (HCC-2998 colon) was 30.4 µM and the TGI (HCT-116 colon) was 22 µM. For the same compound, the TGI (HCT-15 colon) was 41.6 µM, the TGI (HL-60(TB) leukemia) was 8.15 µM and the TGI (HOP-62 NSCLC) was 30.8 µM. The TGI (HOP-92 NSCLC) was 24 µM, the TGI (HS 578T breast) was 42.2 µM and the TGI (HT29 colon) was 24.8 µM. The TGI (IGROV1 ovarian) was 30.9 µM, the TGI (K-562 leukemia) was 44.6 µM and the TGI (KM12 colon) was 40.4 µM. It also gave a TGI (LOX IMVI melanoma) of 34.4 µM, a TGI (M14 melanoma) of 31 µM and a TGI (MALME-3M melanoma) of 34.6 µM. For the same compound, the TGI (MCF7 breast) was 38.7 µM, the TGI (MDA-MB-231 breast) was 33.6 µM and the TGI (MDA-MB-435) was 28.9 µM. For the same compound, the TGI (MDA-N) was 26.9 µM, the TGI (MOLT-4 leukemia) was 24.8 µM and the TGI (NCI-H23 lung) was 32.1 µM. The TGI (NCI-H460 lung) was 19.9 µM, the TGI (NCI-H522 lung) was 32.2 µM and the TGI (NCI/ADR-RES ovarian) was 48.1 µM. The TGI (OVCAR-3 ovarian) was 30.5 µM, the TGI (OVCAR-4 ovarian) was 26.9 µM and the TGI (OVCAR-5 ovarian) was 27 µM. The TGI (OVCAR-8 ovarian) was 41.4 µM, the TGI (PC-3 prostate) was 33.9 µM and the TGI (RPMI-8226 leukemia) was 52.8 µM. The TGI (RXF 393 renal) was 28.3 µM, the TGI (SF-268 CNS) was 34.6 µM and the TGI (SF-295 CNS) was 26.3 µM. For the same compound, the TGI (SF-539 CNS) was 37.3 µM, the TGI (SK-MEL-2 melanoma) was 34.5 µM and the TGI (SK-MEL-28 melanoma) was 37 µM. For the same compound, the TGI (SK-MEL-5 melanoma) was 28.1 µM, the TGI (SK-OV-3 ovarian) was 31.7 µM and the TGI (SN12C renal) was 34.5 µM. For the same compound, the TGI (SNB-19 CNS) was 31.3 µM, the TGI (SNB-75 CNS) was 33.5 µM and the TGI (SW-620 colon) was 36.2 µM. For the same compound, the TGI (T-47D breast) was 35.2 µM, the TGI (TK-10 renal) was 29.2 µM and the TGI (U251 CNS) was 34.6 µM. It also gave a TGI (UACC-257 melanoma) of 27.4 µM, a TGI (UACC-62 melanoma) of 26.7 µM and a TGI (UO-31 renal) of 36.4 µM.
